Several values for one entry are separate records, joined by “and”; a condition that tells them apart may be missing. Identical values can stand only once. Like-named read-outs stand apart in the source and are kept apart here.
Assays:
[1] = tested on: Pfeiffer (diffuse large B cell lymphoma) cells; experiment: Anti-proliferation assay (ATPLite, 72 h), Pfeiffer; format: cell-based; details: in combination with HE-NECA
Protocol: (§1) All of the cell lines were cultured in RPMI-1640 media supplemented with 10% FBS except OCI Ly10 cells (IMDM media supplemented with 20% human serum). The ANBL-6 cell line culture media also contained 10 ng/ml IL-6. MM.1S, MM.1R, SU-DHL6, Karpas 422, and OCI ly10 cells were provided by the Dana Farber Cancer Institute. ANBL-6 cells were provided by Bob Orlowsli (M.D. Anderson Cancer Research Center). H929, RPMI-8226, GA-10, Farage, Mino, JVM-13, Pfeiffer, Toledo, and Kusami-1 cells were from ATCC (Cat #'s CCL-155, CRL-9068, CRL-2392 CRL-2630, CRL-3000, CRL-3003, CRL-2632, CRL-2631, and CRL-2724 respectively). MOLP-8, OPM2, EJM, and KSM-12-PE cells were from DSMZ.
(§2) Compounds were prepared in DMSO at 1000× the highest desired concentration. Master plates were generated consisting of serially diluted compounds in 2- or 3-fold dilutions in 384-well format. For single agent dose response curves, the master plates consisted of 9 individual compounds at 12 concentrations in 2- or 3-fold dilutions. For combination matrices, master plates consisted of individual compounds at 6 or 9 concentrations at 2- or 3-fold dilutions.
(§3) The average untreated well value (avg. untreated wells) is the arithmetic mean of 40 wells from the same assay plate treated with vehicle alone. […]
(§4) The Loewe additivity model was used to quantify combination effects. […]

[2] = tested on: mantle cell lymphoma cell line Mino; experiment: Anti-proliferation assay (ATPLite, 72 h), Mino; format: cell-based, human; details: in combination with HE-NECA; Mino
Protocol: as §1, §2
(§5) The average untreated well value (avg. untreated wells) is the arithmetic mean of 40 wells from the same assay plate treated with vehicle alone. Negative inhibition values result from local variations in treated wells as compared to untreated wells.
(§6) The uncertainty of each fitted parameter was estimated from the range over which the change in reduced chi-squared was less than one, or less than minimum reduced chi-squared if that minimum exceeded one, to allow for underestimated σI errors.
(§7) Single agent curve data were used to define a dilution series for each compound to, be used for combination screening in a 6×6 matrix format. […] For compounds with no detectable single agent activity, a dilution factor of 4 was used, starting from the highest achievable concentration.
(§8) The Loewe additivity model was used to quantify combination effects. Combinations were ranked initially by Additivity Excess Volume, which is defined as ADD Volume=ΣCX, CY(Idata−ILoewe). where ILoewe(CX,CY) is the inhibition that satisfies (CX/ECX)+(CY/ECY)=1, and ECX,Y are the effective concentrations at ILoewe for the single agent curves. A “Synergy Score” was also used, where the Synergy Score S=log fX log fY ΣIdata (Idata−ILoewe), summed over all non-single-agent concentration pairs, and where log fX,Y is the natural logarithm of the dilution factors used for each single agent.

KSM-12-PE cells = experiment: Anti-proliferation assay (ATPLite, 72 h), KSM-12-PE; format: cell-based
[3] = tested on: mantle cell lymphoma cell line JVM-13; experiment: Anti-proliferation assay (ATPLite, 72 h), JVM-13; format: cell-based, human; details: in combination with HE-NECA; JVM-13
Protocol: as §1, §2, §5, §6, §7, §8

[4] = tested on: Kasumi-1 (acute myelogenous leukemia) cells; experiment: Anti-proliferation assay (ATPLite, 72 h), Kasumi-1; format: cell-based; details: in combination with HE-NECA
Protocol: as §1, §2, §3, §4

MM.1S cells [5] = experiment: Anti-proliferation assay (ATPLite, 72 h), MM.1S
H929 cells = experiment: Anti-proliferation assay (ATPLite, 72 h), H929; format: cell-based
EJM cells = experiment: Anti-proliferation assay (ATPLite, 72 h), EJM; format: cell-based
MOLP-8 cells = experiment: Anti-proliferation assay (ATPLite, 72 h), MOLP-8; format: cell-based; details: in combination with CGS-21680
SU-DHL6 DLBCL cells = experiment: Anti-proliferation assay (ATPLite, 72 h), SU-DHL6; format: cell-based; details: in combination with CGS-21680
MM.1S cells [6] = tested on: MM.1S cells
[7] = tested on: chronic lymphocytic leukemia (CLL) cells; experiment: Apoptosis assay (Hoechst 33342 flow cytometry, 48 h) on patient CLL cells; format: cell-based, human
Excerpt: Patients with active infections or other serious medical conditions were not included in this study. Patients with white blood cell counts of less than 15,000/μl by automated analysis were excluded from this study. Whole blood was layered on Ficoll-Hystopaque (Sigma), and peripheral blood mononuclear cells (PBMC) isolated after centrification. […] One million cells were stained with anti-CD5-PE and anti-CD19-PE-Cy5 (Becton […].). The percentage of B-CLL cells was defined as the percentage of cells doubly expressing CD5 and CD19, as determined by flow cytometry. […] Compound master plates were diluted 1:50 into complete media to create working compound dilutions. Compound crosses were then created by diluting two working dilution plates 1:10 into each plate of cells. […] Hoechst 33342 (Molecular Probes, Eugene Oreg.) at a final concentration of 0.25 μg/mL was added to each well and the cells incubated at 37° C. for an additional ten minutes before being placed on ice until analysis. Plates were then analyzed on a LSR-II flow cytometer (Becton Dickenson, Franklin Lakes, N.J.) equipped with the High Throughput Sampling (HTS) option in high throughput mode. […] The apoptotic fraction was calculated using FlowJo software (Tree Star Inc., Ashland, Oreg.) after excluding debris by a FSC/SSC gate and subsequently gating for cells that accumulate the Hoechst dye.

OCI-ly10 DLBCL cells = experiment: Anti-proliferation assay (ATPLite, 72 h), OCI-ly10; format: cell-based; details: in combination with CGS-21680
ANBL-6 cells = experiment: Anti-proliferation assay (ATPLite, 72 h), ANBL-6; format: cell-based; details: in combination with CGS-21680
RPMI-8226 cells = experiment: Anti-proliferation assay (ATPLite, 72 h), RPMI-8226; format: cell-based; details: in combination with ADAC; RPMI-8226
MM.1R cells = experiment: Anti-proliferation assay (ATPLite, 72 h), MM.1R; format: cell-based; details: in combination with ADAC; MM.1R
OPM2 cells = experiment: Anti-proliferation assay (ATPLite, 72 h), OPM2; format: cell-based, human; details: in combination with CGS-21680; OPM-8
Karpas 422 DLBCL cells = experiment: Anti-proliferation assay (ATPLite, 72 h), Karpas 422; format: cell-based; details: in combination with CGS-21680

## COC1=C2C[C@@H](C)C[C@H](OC)[C@H](O)[C@@H](C)/C=C(\C)[C@H](OC(N)=O)[C@@H](OC)/C=C\C=C(/C)C(=O)NC(=CC1=O)C2=O [geldanomycin]
[1]
  synergy score: 2.1
[2]
  synergy score: 1.27
KSM-12-PE cells; in combination with HE-NECA, KSM-12_PE
  synergy score: 1.37
[3]
  synergy score: 1.84
[4]
  synergy score: 2.47
MM.1S cells [5]
  synergy score: 2.2
H929 cells
  synergy score: 1.82
EJM cells; in combination with HE-NECA
  synergy score: 1.48

## C[C@@H]1C[C@H]2[C@@H]3CCC4=CC(=O)C=C[C@]4(C)[C@@]3(F)[C@@H](O)C[C@]2(C)[C@@]1(O)C(=O)CO [dexamethasone]
MOLP-8 cells
  synergy score: 4.86
SU-DHL6 DLBCL cells
  synergy score: 4.85
MM.1S cells [6]
  inhibition: 47% and 36% and 60% and 48%
KSM-12-PE cells; in combination with CGS-21680, KSM-12-PE
  synergy score: 1.27
[7]; Patient #1, Dexamethasone 1 nM alone
  Induction of CLL cell apoptosis: 9.3%
[7]; Patient #1, Dexamethasone 10 nM alone
  Induction of CLL cell apoptosis: 33%
[7]; Patient #1, Dexamethasone 100 nM alone
  Induction of CLL cell apoptosis: 56%
[7]; Patient #2, Dexamethasone 8.4 nM alone
  Induction of CLL cell apoptosis: 8.4%
[7]; Patient #2, Dexamethasone 11 nM alone
  Induction of CLL cell apoptosis: 11%
[7]; Patient #2, Dexamethasone 36 nM alone
  Induction of CLL cell apoptosis: 36%
[7]; Patient #2, Dexamethasone 50 nM alone
  Induction of CLL cell apoptosis: 50%
[7]; patient 1, 48 hours
  apoptosis, CLL cells patient 1: 33%
[7]; patient #2, 48 hours
  apoptosis, CLL cells patient #2: 27%
OCI-ly10 DLBCL cells
  synergy score: 4.21
ANBL-6 cells
  synergy score: 1.25
RPMI-8226 cells
  synergy score: 4.71
MM.1R cells
  synergy score: 0.33
MM.1S cells [5]; DEX 0.0462 nM, Cl-IB-MECA 0 nM, MM.1S, 72 h
  percent inhibition of cell proliferation: 12%
MM.1S cells [5]; DEX 0.139 nM alone, listed as DEX
  percent inhibition of cell proliferation: 1.8% and 10%
MM.1S cells [5]; DEX 0.139 nM, Cl-IB-MECA 0 nM, MM.1S, 72 h
  percent inhibition of cell proliferation: 0.78%
MM.1S cells [5]; DEX 0.416 nM alone
  percent inhibition of cell proliferation: 8.3%
MM.1S cells [5]; DEX 1.85 nM alone, listed as DEX
  percent inhibition of cell proliferation: 14% and 27%
MM.1S cells [5]; DEX 1.85 nM, CCPA 0 μM, MM.1S, 72 h
  percent inhibition of cell proliferation: 13%
MM.1S cells [5]; DEX 3.74 nM alone
  percent inhibition of cell proliferation: 32%
MM.1S cells [5]; DEX 3.74 nM, Cl-IB-MECA 0 nM, MM.1S, 72 h
  percent inhibition of cell proliferation: 22%
MM.1S cells [5]; DEX 5.56 nM alone, listed as DEX
  percent inhibition of cell proliferation: 20% and 30% and 33%
MM.1S cells [5]; DEX 5.56 nM, CCPA 0 μM, MM.1S, 72 h
  percent inhibition of cell proliferation: 36%
MM.1S cells [5]; DEX 11.2 nM alone, listed as DEX
  percent inhibition of cell proliferation: 28% and 54%
MM.1S cells [5]; DEX 11.2 nM, Cl-IB-MECA 0 nM, MM.1S, 72 h
  percent inhibition of cell proliferation: 29%
MM.1S cells [5]; DEX 33.7 nM alone, listed as DEX
  percent inhibition of cell proliferation: 48% and 64%
MM.1S cells [5]; DEX 33.7 nM, Cl-IB-MECA 0 nM, MM.1S, 72 h
  percent inhibition of cell proliferation: 56%
MM.1S cells [5]; DEX 0.0378 μM alone
  percent inhibition of cell proliferation: 61%
MM.1S cells [5]; DEX 50 nM alone, listed as DEX
  percent inhibition of cell proliferation: 55% and 79% and 70%
MM.1S cells [5]; DEX 50 nM, CCPA 0 μM, MM.1S, 72 h
  percent inhibition of cell proliferation: 72%
MM.1S cells [5]; DEX 101 nM alone, listed as DEX
  percent inhibition of cell proliferation: 64% and 68%
MM.1S cells [5]; DEX 101 nM, Cl-IB-MECA 0 nM, MM.1S, 72 h
  percent inhibition of cell proliferation: 67%
MM.1S cells [5]; DEX 0.113 μM alone
  percent inhibition of cell proliferation: 76%
MM.1S cells [5]; DEX 150 nM alone, listed as DEX
  percent inhibition of cell proliferation: 73% and 87% and 80%
MM.1S cells [5]; DEX 150 nM, CCPA 0 μM, MM.1S, 72 h
  percent inhibition of cell proliferation: 76%
MM.1S cells [5]; DEX 303 nM alone
  percent inhibition of cell proliferation: 70%
MM.1S cells [5]; DEX 0.34 μM alone
  percent inhibition of cell proliferation: 78%
MM.1S cells [5]; DEX 1.02 μM alone
  percent inhibition of cell proliferation: 82%
MM.1S cells [5]; DEX 0.0462. nM alone
  percent inhibition of cell proliferation: −2.5%
MM.1S cells [5]; DEX 0.4.16 nM alone
  percent inhibition of cell proliferation: −5.2%
MM.1S cells [5]; DEX 0.4.16 nM, Cl-IB-MECA 0 nM, MM.1S, 72 h
  percent inhibition of cell proliferation: 4.5%
MM.1S cells [5]; DEX 3.74. nM alone
  percent inhibition of cell proliferation: 18%
MM.1S cells [5]; DEX […], Cl-IB-MECA 0 nM, MM.1S, 72 h
  percent inhibition of cell proliferation: 9.7%
MM.1S cells [5]; MM.1S, 72 hours, 10 ng/ml IL-6 vs no IL-6
  change in IC50 when cultured in the presence of IL-6: 2.9 fold
MM.1S cells [5]; in combination with ADAC, MM.1S
  synergy score: 1.98
MM.1S cells [5]; in combination with CGS-21680, MM.1S
  synergy score: 8.06
OPM2 cells
  synergy score: 2.85
H929 cells; in combination with ADAC, H929
  synergy score: 7.09
Karpas 422 DLBCL cells
  synergy score: 4.32
EJM cells; in combination with CGS-21680
  synergy score: 5.32

From patent US20090053168A1, “TREATMENTS OF B-CELL PROLIFERATIVE DISORDERS” (priority 2007, published 2009)
